Assay results as given in patent US20240101570A1 (AMGEN INC., priority 2020, published 2024).

Assays:
HCT116 WT cells = test: HCT116 WT cell proliferation / viability (CellTiter-Glo, 6 days); format: cell-based; settings: Homo sapiens, HCT-116, 144 h, HCT116 WT cells, 6 days, CellTiter-Glo; read-out: HCT-116 WT IC50
In short: (§1)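 CellTiter-Glo luminescence, 6-day exposure, RPMI 1640 + 10% FBS. Dosing: 1:3 series (8-9 pts, top 1 or 10 μM) or 1:2 series (22 pts, top 10 or 50 μM), DMSO control. IC50 = 50% of control via curve fit.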

HCT116 MTAP null cells = test: HCT116 MTAP null cell proliferation / viability (CellTiter-Glo, 6 days); format: cell-based; settings: HCT116-MTAP null, 144 h, HCT116 MTAP null cells, 6 days, CellTiter-Glo; read-out: HCT-116 MTAP null IC50
In short: as §1

Compound | IC50 (HCT116 WT cells) [nM] | IC50 (HCT116 MTAP null cells) [nM]
Nc1nc2ccc(C(=O)N(Cc3ccc(C(F)(F)F)nn3)C3CCC3)cc2c2c1COC2 [Example 669, 4-amino-N-cyclobutyl-N-((6-(trifluoromethyl)-3-pyridazinyl)methyl)-1,3-dihydrofuro[3,4-c]quinoline-8-carboxamide] | 3070 | 73
CC(C)CN(Cc1ccc(C(F)(F)F)nn1)C(=O)c1cc2c3c(c(N)nc2cn1)COC3 [Example 670, 4-amino-N-(2-methylpropyl)-N-((6-(trifluoromethyl)-3-pyridazinyl)methyl)-1,3-dihydrofuro[3,4-c][1,7]naphthyridine-8-carboxamide] | 8020 | 170
Nc1nc2cnc(C(=O)N(Cc3ccc(Br)nn3)CC3CC3)cc2c2c1COC2 [Example 671, 4-amino-N-((6-bromo-3-pyridazinyl)methyl)-N-(cyclopropylmethyl)-1,3-dihydrofuro[3,4-c][1,7]naphthyridine-8-carboxamide] | 3970 | 80
CCOc1ccc(CN(CC(C)C)C(=O)c2cc3c4c(c(N)nc3cn2)COC4)nn1 [Example 672, 4-amino-N-((6-ethoxy-3-pyridazinyl)methyl)-N-(2-methylpropyl)-1,3-dihydrofuro[3,4-c][1,7]naphthyridine-8-carboxamide] | 7460 | 145
C[C@H](c1ncccn1)N(Cc1ccc(Br)nn1)C(=O)c1cc2c3c(c(N)nc2cn1)COC3 [Example 673, 4-amino-N-((6-bromo-3-pyridazinyl)methyl)-N-((1R)-1-(2-pyrimidinyl)ethyl)-1,3-dihydrofuro[3,4-c][1,7]naphthyridine-8-carboxamide] | 3260 | 110
Nc1nc2ccc(C(=O)N(Cc3ccc(Br)nn3)CC3CC3)cc2c2c1COC2 [Example 674, 4-amino-N-((6-bromo-3-pyridazinyl)methyl)-N-(cyclopropylmethyl)-1,3-dihydrofuro[3,4-c]quinoline-8-carboxamide] | 2580 | 73

Results, then the compound that gave them:

IC50 (HCT116 WT cells) [nM] | IC50 (HCT116 MTAP null cells) [nM] | Compound
12700 | 66 | CC(C)N(Cc1ccc(C(F)(F)F)cn1)C(=O)c1cc2c3c(c(N)nc2cn1)COC3 [Example 675, 4-amino-N-(2-propanyl)-N-((5-(trifluoromethyl)-2-pyridinyl)methyl)-1,3-dihydrofuro[3,4-c][1,7]naphthyridine-8-carboxamide]
316 | 12 | C[C@H](c1ncccn1)N(Cc1ccc(Cl)nn1)C(=O)c1ccc2nc(N)c3c(c2c1)COC3 [Example 676, 4-amino-N-((6-chloro-3-pyridazinyl)methyl)-N-((1R)-1-(2-pyrimidinyl)ethyl)-1,3-dihydrofuro[3,4-c]quinoline-8-carboxamide]
> 10000 | 243 | Cc1nc(CN(C)C(=O)c2ccc3nc(N)c4c(c3c2)COC4)ccc1Br [Example 677, 4-amino-N-((5-bromo-6-methyl-2-pyridinyl)methyl)-N-methyl-1,3-dihydrofuro[3,4-c]quinoline-8-carboxamide]
1180 | 40 | CC(C)N(Cc1ccc(OC(F)(F)F)cn1)C(=O)c1ccc2nc(N)c3c(c2c1)COC3 [Example 678, 4-amino-N-(2-propanyl)-N-((5-(trifluoromethoxy)-2-pyridinyl)methyl)-1,3-dihydrofuro[3,4-c]quinoline-8-carboxamide]
108 | 5 | C[C@H](c1ncccn1)N(Cc1ccc(C#N)c(Cl)n1)C(=O)c1ccc2nc(N)c3c(c2c1)COC3 [Example 679, 4-amino-N-((6-chloro-5-cyano-2-pyridinyl)methyl)-N-((1R)-1-(2-pyrimidinyl)ethyl)-1,3-dihydrofuro[3,4-c]quinoline-8-carboxamide]
2840 | 91 | COC[C@@H](C)N(Cc1ccc(Br)nn1)C(=O)c1cc2c3c(c(N)nc2cn1)COC3 [Example 680, 4-amino-N-((6-bromo-3-pyridazinyl)methyl)-N-((2R)-1-methoxy-2-propanyl)-1,3-dihydrofuro[3,4-c][1,7]naphthyridine-8-carboxamide]
